This passage reports Ki comp results from ChEMBL document CHEMBL1136669, “Synthesis of aza and oxaglutamyl-p-nitroanilide derivatives and their kinetic studies with gamma-glutamyltranspeptidase” (Bioorg Med Chem Lett, 2003).

This assay addresses Glutathione hydrolase 1 proenzyme (Rattus norvegicus, UniProt P07314). As to the kind of experiment: Compound was tested for the competitive inhibition of rat kidney gamma-glutamyltranspeptidase (gamma-GGT).

Sequence of Glutathione hydrolase 1 proenzyme (P07314 1-379 limits assumed): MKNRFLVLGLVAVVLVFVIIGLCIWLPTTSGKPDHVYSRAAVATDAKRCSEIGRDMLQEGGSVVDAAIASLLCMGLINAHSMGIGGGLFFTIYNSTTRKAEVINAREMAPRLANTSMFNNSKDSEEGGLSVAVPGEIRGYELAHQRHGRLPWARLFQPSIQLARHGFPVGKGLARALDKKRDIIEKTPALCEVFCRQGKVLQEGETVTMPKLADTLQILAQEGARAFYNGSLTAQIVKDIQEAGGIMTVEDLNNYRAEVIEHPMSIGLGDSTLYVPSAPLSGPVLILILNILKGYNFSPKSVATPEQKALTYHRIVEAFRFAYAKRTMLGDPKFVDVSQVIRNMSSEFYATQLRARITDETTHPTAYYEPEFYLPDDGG
Sequence of Glutathione hydrolase 1 proenzyme (P07314 380-568 limits assumed): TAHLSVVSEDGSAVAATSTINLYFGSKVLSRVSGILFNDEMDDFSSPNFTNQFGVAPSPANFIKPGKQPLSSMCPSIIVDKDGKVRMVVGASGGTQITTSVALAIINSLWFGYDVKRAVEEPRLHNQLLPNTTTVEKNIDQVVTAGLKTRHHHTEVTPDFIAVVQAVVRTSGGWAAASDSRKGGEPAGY

For `Cl.N[C@@H](CNC(=O)Nc1ccc([N+](=O)[O-])cc1)C(=O)O`, the Ki comp is on record as 3.8 mM.
